Key:
Experiment in all cases: NCI-60 SRB cytotoxicity screen
Format in all cases: cell-based
ACHN (renal cancer) = conditions: Homo sapiens, single dose 10 μM, read-out: growth inhibition (GI%)
SF-268 (CNS cancer) = conditions: Homo sapiens; SF-268, single dose 10 μM; read-out: growth inhibition (GI%)
SF-539 (CNS cancer) = conditions: Homo sapiens; SF-539, single dose 10 μM; read-out: growth inhibition (GI%)
[1] = system: HOP-62 (non-small cell lung cancer); conditions: Homo sapiens; HOP-62, single dose 10 μM; read-out: growth inhibition (GI%)
HCT-15 (colon cancer) = conditions: Homo sapiens; HCT-15, single dose 10 μM; read-out: growth inhibition (GI%)
T-47D (breast cancer) = conditions: Homo sapiens, T47D, single dose 10 μM, read-out: growth inhibition (GI%)
RXF 393 (renal cancer) = conditions: Homo sapiens; RXF 393, single dose 10 μM; read-out: growth inhibition (GI%)
HL-60(TB) (leukemia) = conditions: Homo sapiens, single dose 10 μM, read-out: growth inhibition (GI%)
SK-MEL-2 (melanoma) = conditions: Homo sapiens; SK-MEL-2, single dose 10 μM; read-out: growth inhibition (GI%)
MDA-MB-435 (melanoma) = conditions: Homo sapiens, MDA-MB-435, read-out: growth inhibition (GI%)
OVCAR-4 (ovarian cancer) = conditions: Homo sapiens; OVCAR-4, single dose 10 μM; read-out: growth inhibition (GI%)
SNB-19 (CNS cancer) = conditions: Homo sapiens; SNB-19, single dose 10 μM; read-out: growth inhibition (GI%)
HS 578T (breast cancer) = conditions: Homo sapiens, single dose 10 μM, read-out: growth inhibition (GI%)
[2] = system: MDA-MB-468 (breast cancer); conditions: Homo sapiens; MDA-MB-468, single dose 10 μM; read-out: growth inhibition (GI%)
Protocol: The cytotoxic activity of the synthesized quinoline derivatives was determined by the national cancer institute (NCI, Bethesda, Maryland, USA) against 60 different cancer cell lines at a single high dose (10^−5 M) in the full NCI 60 cell panel using the sulforhodamine B assay for cell viability evaluation. In summary, 5 × 10^3 cells were in 96-well plate and incubated in complete media for 24 h. Cells were treated with 100 μL of media containing each newly synthesized compound. After drug exposure, cells were fixed by replacing media with 150 μL of 10% TCA and incubated at 4 °C for 1 h. The TCA solution was removed, and the cells were washed 5 times with distilled water. Aliquots of 70 μL SRB solution (0.4% w/v) were added and incubated in a dark place at room temperature for 10 min. The plates were washed 3 times with 1% acetic acid and allowed to air-dry overnight. Then, 150 μL of TRIS (10 mM) was added to dissolve protein-bound SRB stain. The absorbance was measured at 540 nm.% Cytotoxicity = [1 − (AVx/AVNC)] × 100where AVx denotes the average absorbance of the sample well and AVNC denotes the average absorbance of the negative control.
The methodology of the NCI anticancer screening has been described in details at (http://www.dtp.nci.nih.gov). The anticancer assay was performed in full NCI 60 cell lines derived from nine tumor subpanels, including leukemia, lung, colon, CNS, melanoma, ovarian, renal, prostate, and breast cancer cell lines.
The cell lines were first cultured for 48 h, after being exposed to a single dosage of the compound. Using the protein-binding dye sulforhodamine B dye, cell proliferation and viability were evaluated (SRB assay). The results were presented for each chemical as GI%. Compound that met NCI criteria for substantial activity were further evaluated using a five-dose experiment. The NCI60 cell lines were treated with the chemicals in this assay at five different concentration levels (0.01, 0.1, 1, 10, and 100 μM).

[3] = system: NCI-H23 (non-small cell lung cancer); conditions: Homo sapiens; NCI-H23, single dose 10 μM; read-out: growth inhibition (GI%)
CCRF-CEM (leukemia) = conditions: Homo sapiens, single dose 10 μM, read-out: growth inhibition (GI%)
U251 (CNS cancer) = conditions: Homo sapiens, U-251; U251, single dose 10 μM; read-out: growth inhibition (GI%)
SK-OV-3 (ovarian cancer) = conditions: Homo sapiens; SK-OV-3, single dose 10 μM; read-out: growth inhibition (GI%)
MCF7 (breast cancer) = conditions: Homo sapiens; MCF7, single dose 10 μM; read-out: growth inhibition (GI%)
OVCAR-8 (ovarian cancer) = conditions: Homo sapiens; OVCAR-8, single dose 10 μM; read-out: growth inhibition (GI%)
[4] = system: NCI-H460 (non-small cell lung cancer); conditions: Homo sapiens; NCI-H460, single dose 10 μM; read-out: growth inhibition (GI%)
OVCAR-5 (ovarian cancer) = conditions: Homo sapiens; OVCAR-5, single dose 10 μM; read-out: growth inhibition (GI%)
[5] = system: NCI-H522 (non-small cell lung cancer); conditions: Homo sapiens; NCI-H522, single dose 10 μM; read-out: growth inhibition (GI%)
[6] = system: A549/ATCC (non-small cell lung cancer); conditions: Homo sapiens, single dose 10 μM, read-out: growth inhibition (GI%)
UACC-62 (melanoma) = conditions: Homo sapiens; UACC-62, single dose 10 μM; read-out: growth inhibition (GI%)
BT-549 (breast cancer) = conditions: Homo sapiens; BT-549, single dose 10 μM; read-out: growth inhibition (GI%)
UO-31 (renal cancer) = conditions: Homo sapiens; UO-31, single dose 10 μM; read-out: growth inhibition (GI%)
K-562 (leukemia) = conditions: Homo sapiens; K-652 [sic], single dose 10 μM; read-out: growth inhibition (GI%)
[7] = system: NCI-H322M (non-small cell lung cancer); conditions: Homo sapiens, single dose 10 μM, read-out: growth inhibition (GI%)
SK-MEL-5 (melanoma) = conditions: Homo sapiens; SK-MEL-5, single dose 10 μM; read-out: growth inhibition (GI%)

SMILES: CCc1cccc2cc(C=CC(=O)c3ccc(OC)c(OC)c3)c(Cl)nc12 [Compound 3b, 3-(2-Chloro-8-ethylquinolin-3-yl)-1-(3,4-dimethoxyphenyl)prop-2-en-1-one]
- inhibition at 10 µM (ACHN (renal cancer)): 24.5%
- inhibition at 10 µM (SF-268 (CNS cancer)): < 10%
- inhibition at 10 µM (SF-539 (CNS cancer)): 99.4%
- inhibition at 10 µM [1]: < 10%
- inhibition at 10 µM (HCT-15 (colon cancer)): 20.4%
- inhibition at 10 µM (T-47D (breast cancer)): 57.9%
- inhibition at 10 µM (RXF 393 (renal cancer)): 22.1%
- inhibition at 10 µM (HL-60(TB) (leukemia)): 61%
- inhibition at 10 µM (SK-MEL-2 (melanoma)): < 10%
- inhibition at 10 µM (MDA-MB-435 (melanoma)): 17.1%
- inhibition at 10 µM (OVCAR-4 (ovarian cancer)): 42.3%
- inhibition at 10 µM (SNB-19 (CNS cancer)): 54.4%
- inhibition at 10 µM (HS 578T (breast cancer)): < 10%
- inhibition at 10 µM [2]: 39.8%
- inhibition at 10 µM [3]: 20.2%
- inhibition at 10 µM (CCRF-CEM (leukemia)): 65%
- inhibition at 10 µM (U251 (CNS cancer)): 65.2%
- inhibition at 10 µM (SK-OV-3 (ovarian cancer)): < 10%
- inhibition at 10 µM (MCF7 (breast cancer)): 37.1%
- inhibition at 10 µM (OVCAR-8 (ovarian cancer)): 57.8%
- inhibition at 10 µM [4]: 27.7%
- inhibition at 10 µM (OVCAR-5 (ovarian cancer)): 12.5%
- inhibition at 10 µM [5]: 41.5%
- inhibition at 10 µM [6]: 43.5%
- inhibition at 10 µM (UACC-62 (melanoma)): 35.9%
- inhibition at 10 µM (BT-549 (breast cancer)): 50.3%
- inhibition at 10 µM (UO-31 (renal cancer)): 41.8%
- inhibition at 10 µM (K-562 (leukemia)): 55.7%
- inhibition at 10 µM [7]: 22.4%
- inhibition at 10 µM (SK-MEL-5 (melanoma)): 23.2%

SMILES: CCc1cccc2cc(C=CC(=O)c3cc(OC)c(OC)c(OC)c3)c(Cl)nc12 [Compound 3c, 3-(2-Chloro-8-ethylquinolin-3-yl)-1-(3,4,5-trimethoxyphenyl)prop-2-en-1-one]
- inhibition at 10 µM (ACHN (renal cancer)): 32%
- inhibition at 10 µM (SF-268 (CNS cancer)): 32.2%
- inhibition at 10 µM (SF-539 (CNS cancer)): > 100%
- inhibition at 10 µM [1]: < 10%
- inhibition at 10 µM (HCT-15 (colon cancer)): 44.5%
- inhibition at 10 µM (T-47D (breast cancer)): 72.8%
- inhibition at 10 µM (RXF 393 (renal cancer)): 42.6%
- inhibition at 10 µM (HL-60(TB) (leukemia)): 73.5%
- inhibition at 10 µM (SK-MEL-2 (melanoma)): 44.5%
- inhibition at 10 µM (MDA-MB-435 (melanoma)): 59.2%
- inhibition at 10 µM (OVCAR-4 (ovarian cancer)): 42%
- inhibition at 10 µM (SNB-19 (CNS cancer)): 66.4%
- inhibition at 10 µM (HS 578T (breast cancer)): < 10%
- inhibition at 10 µM [2]: 61.1%
- inhibition at 10 µM [3]: 27.4%
- inhibition at 10 µM (CCRF-CEM (leukemia)): 87.8%
- inhibition at 10 µM (U251 (CNS cancer)): 78.2%
- inhibition at 10 µM (SK-OV-3 (ovarian cancer)): 17.4%
- inhibition at 10 µM (MCF7 (breast cancer)): 70.9%
- inhibition at 10 µM (OVCAR-8 (ovarian cancer)): 84%
- inhibition at 10 µM [4]: 18.4%
- inhibition at 10 µM (OVCAR-5 (ovarian cancer)): 26.8%
- inhibition at 10 µM [5]: 80.7%
- inhibition at 10 µM [6]: 52.1%
- inhibition at 10 µM (UACC-62 (melanoma)): 41.9%
- inhibition at 10 µM (BT-549 (breast cancer)): 76.1%
- inhibition at 10 µM (UO-31 (renal cancer)): 45%
- inhibition at 10 µM (K-562 (leukemia)): 68.1%
- inhibition at 10 µM [7]: 31.1%
- inhibition at 10 µM (SK-MEL-5 (melanoma)): 39.9%

SMILES: CCc1cccc2cc(C3C=C(c4cc(OC)c(OC)c(OC)c4)NC(=S)N3)c(Cl)nc12 (stereo not drawn) [Compound 6c, 4-(2-Chloro-8-ethylquinolin-3-yl)-6-(3,4,5-trimethoxyphenyl)-3,4-dihydropyrimidine-2(1H)-thione]
- inhibition at 10 µM (ACHN (renal cancer)): 24.4%
- inhibition at 10 µM (SF-268 (CNS cancer)): 42.4%
- inhibition at 10 µM (SF-539 (CNS cancer)): 30.3%
- inhibition at 10 µM [1]: 10.5%
- inhibition at 10 µM (HCT-15 (colon cancer)): 30.9%
- inhibition at 10 µM (T-47D (breast cancer)): 48.6%
- inhibition at 10 µM (RXF 393 (renal cancer)): 40.6%
- inhibition at 10 µM (HL-60(TB) (leukemia)): 41.5%
- inhibition at 10 µM (SK-MEL-2 (melanoma)): 10.2%
- inhibition at 10 µM (MDA-MB-435 (melanoma)): 43.5%
- inhibition at 10 µM (OVCAR-4 (ovarian cancer)): 48.9%
- inhibition at 10 µM (SNB-19 (CNS cancer)): 23.4%
- inhibition at 10 µM (HS 578T (breast cancer)): 39.6%
- inhibition at 10 µM [2]: 40.5%
- inhibition at 10 µM [3]: 25.8%
- inhibition at 10 µM (CCRF-CEM (leukemia)): 32.9%
- inhibition at 10 µM (U251 (CNS cancer)): 26.6%
- inhibition at 10 µM (SK-OV-3 (ovarian cancer)): < 10%
- inhibition at 10 µM (MCF7 (breast cancer)): 44.3%
- inhibition at 10 µM (OVCAR-8 (ovarian cancer)): 12.2%
- inhibition at 10 µM [4]: 30%
- inhibition at 10 µM (OVCAR-5 (ovarian cancer)): < 10%
- inhibition at 10 µM [5]: 50.3%
- inhibition at 10 µM [6]: 26.3%
- inhibition at 10 µM (UACC-62 (melanoma)): 35.5%
- inhibition at 10 µM (BT-549 (breast cancer)): 10.5%
- inhibition at 10 µM (UO-31 (renal cancer)): 67.7%
- inhibition at 10 µM (K-562 (leukemia)): 44.6%
- inhibition at 10 µM [7]: 18.3%
- inhibition at 10 µM (SK-MEL-5 (melanoma)): 38.2%
